Non-standard residues stand in square brackets, D forms with d. No end group written: not given here. *: point of attachment. βGlc = OC[C@H]1O[C@@H](*)[C@H](O)[C@@H](O)[C@@H]1O; Aib = CC(C)(N)C(=O)O; βAla = NCCC(=O)O
Experiments:
μ opioid receptor = μ opioid receptor (Homo sapiens, UniProt P35372); assay: opioid receptor binding, μ receptor
[1] = helicity by circular dichroism; assay type: physicochemical; details: for % α-helicity: CD, SDS micelles (30 mM), pH = 7.0, 18° C.
Protocol: Circular Dichroism. All of the circular dichroism experiments were carried out on Aviv Associates model 60DS using an Endcal Model RTE4DD water circulator as a temperature-control vehicle. The instrument was calibrated by using d-10-camphorsulphonic acid. The spectra were recorded between 200 and 250 nm by using the continuous mode with a 1.5 nm bandwidth, a three second response and a scan step of 0.5 nm in a cell with a path length of 0.1 cm. Three or five scans were accumulated and averaged for each spectrum. Glycopeptide stock solutions were prepared by weighing the required amount, using Cahn/Ventron Instruments Model 21 automatic analytical electrobalance, to make 1 mL of a 0.5-1.0 mM solution and the pH was adjusted to the desired value. Samples were prepared by diluting the stock solution to 70-80 μM. All observed spectra were baseline-subtracted and smoothed by adjacent average of 5 points using Microcal Origin Ver. 5.0 software (Microcal Software Inc, USA). The molar ellipticities were determined using the formula [θ]=[θ]obs·(MRW)/10·l·C, where [θ]obs observed ellipticity in millidegrees, MRW is the mean residue weight, l is the cell path length in centimeters and C is the glycopeptide concentration in mg/mL. The percent α-helicity was determined by using the formula % helix=[θ]n→π*/−40,000 (1−2.5/n)·100, where n represents the number of amide bonds (including the C-terminal amide) in the glycopeptide and [θ]n→π** is molar ellipticity of n→π* transition band at 222 nm.^55
Conformational Analysis by CD. Circular dichroism (CD) is a powerful and simple tool for identifying secondary structure in both peptides and proteins.^64 All the peptides were subjected to CD analysis in H2O, TFE-H2O mixtures, SDS micelles and phospholipid bicelles. In H2O, a negative band near 200 nm is observed that arises from the π→π* electronic transition and is typical of random coil peptides. […] This behavior is explained as nascent helices.^65 In these nascent helices, helix CD signals could be induced by the addition of TFE.^66 All the glycopeptides gave an increased helix CD signal in TFE. The percentage of helicity increases as TFE concentration increases, but reached a maximum at 30% TFE. The increase in helicity in TFE can be attributed to decreased competition by H2O for hydrogen bonding to the backbone amides. […] In the presence of SDS micelles and anionic bicelles, the band at 200 nm underwent a red shift (higher value) and an additional shoulder appears around 222 nm as a result of the n→π* transition. […] The negative maxima at 222 nm (n→π* transition band) is used to calculate the helical content of polypeptides and proteins. The accepted value for a peptide that is 100% helical is approximately −35,000. It was observed that changes in amplitude of the bands up to 30% depend on length of helix.^67 The amplitude increases as α-helical chain length increases. Therefore, one has to consider the importance of chain-length dependence of the α-helix CD in the quantitative treatment of helix content in proteins and polypeptides. The percentage of helicity is independent of SDS concentration and pH (data not shown). In the presence of zwitterionic bicelles all of the glycopeptides yielded CD spectra similar to that observed in H2O, but anionic bicelles forced them to become more helical. The intensities of the [θ]π→π* band and the [θ]n→π* band are expected to be almost equal for a perfect α-helical peptide. […] A modest blue shift and reduced intensity for the [θ]n→π* transition bands are observed for all the glycopeptides in TFE. […] The glycopeptides 9 (Pro/Glc) and 12 (Pro/Lactose), which differ only by the sugar moiety attached, adopt perfect helices in the presence of SDS micelles and in anionic bicelles. The disaccharide increased the percentage of helicity in all the solvents, relative to the monosaccharide. […] It is remarkable to note that a single amino acid mutation at position 6 produced profound changes in the CD spectra. […]

δ opioid receptor = δ opioid receptor (Homo sapiens, UniProt P41143); assay: opioid receptor binding, δ receptor
[2] = in vivo antinociception after i.c.v. administration; parameters: species or system mice; details: i.c.v., mice; for A50 i.c.v.: antinociception
[3] = helicity by NMR αCH chemical shift index; assay type: physicochemical
Protocol: NMR Spectroscopy. All NMR spectra were recorded on a Bruker DRX600 600 MHz spectrometer. Glycopeptide concentration for the NMR experiments varied from 2-3 mM. The glycopeptides were prepared in TFE-water solution by dissolving the peptide in 0.6 ml solution of a premixed 30% TFE-water mixture. The micelle samples were prepared by dissolving the glycopeptide and 100 equivalent of perdeuterated SDS in 0.6 ml of H2O/D2O (9:1 ratio by volume). Bicelles were produced from deuterated phospholipids. The zwitterionic bicelles were made by mixing the short chain phospholipid dihexanoyl-sn-glycero-3-phosphatidylcholine-d22 (DHPC) and the long chain 1,2-dimyristoyl-sn-glycero-3-phosphatidylcholine-d54 (DMPC) in the molar ratio of 2:1 in H2O. The […] were prepared by substituting 10 mol % of 1,2-dimyristoyl-sn-glycero-3-phospho-1-glycerol-d54 (DMPG) for DMPC. The glycopeptide to bicelle ratio was 1:25. After the glycopeptide was added to the bicelle solution, the system was submitted to a series o f three freeze/thaw/slight vortex shaking cycles. The pH of the each sample was adjusted to 4.5 by using DCl or NaOD as necessary. TSP (3-(trimethylsilyl)-d4-propionic acid) was added as an internal standard. The experiments in F3CCD2OD/H2O mixtures were at 293 K and for experiments in micelles/bicelles were at 298 or 311 K. Two-dimensional double quantum filtered correlation (DQF-COSY), rotating-frame Overhauser enhancement^56 (ROESY), Nuclear Overhauser enhancement^57 (NOESY), and total correlation spectra^58 (TOCSY) were acquired using standard pulse sequences and processed using XWINNMR (Bruker Inc) and FELIX2000 (Accelrys Inc, San Diego, Calif.), Mixing times for TOCSY spectra were either 80 or 100 ms. Mixing times for ROESY spectra were 150 or 250 ms, and for NOESY spectra were 200 or 300 ms. All experiments were 750 increments in t1, 16/32/64 scans each, 1.5 s relaxation delay, size 2 or 4K, and the spectral processing was with shifted sine bell window multiplications in both dimensions.
αCH Chemical Shift Index. […] At this point there is no accepted random coil αCH values for glycosylated serine, CSI values for this position are uncertain. The conformational shift values for all solvents were obtained using the random coil values described by Wright and co-workers.^72 Although, these reference shifts were obtained at pH=5.0 at 4.2° C., they appear to be very insensitive to the conditions, as very small deviations (±0.04) were observed when random coil values are obtained at pH=7.0 at 35° C. by Wuthrich and co-workers.^68 The quantification of secondary structure based on αCH chemical shifts is neglected in the literature because various contributions cannot be strictly accounted for, such as electrostatic effects, ring current shifts, and other magnetic anisotropies. However, it is possible to make qualitative comparison of helical content between closely related (glyco)peptides. Since the 3rd generation glycopeptides differ by only one amino acid at position 6, the helical content was obtained based on the αCH chemical shift values (Table 3). The method described by Gierasch and co-workers^69a was used. First, the average conformational shift was calculated for each glycopeptide by adding all upfield shifts in the helical regions and dividing by the total number of peptide bonds. Then, to obtain the overall helical content for each glycopeptide, the average conformational shift was divided by 0.35 ppm, which was assigned for 100% helicity. Since, there are no random coil values available for β-Alanine and glycosylated serine residues, they were not included in the calculation. The helicogenic Aib residue lacks an α-proton, and there was no correction included in the calculation for the helicity provided by Aib residue. The helical content obtained by this method correlated with the helical content obtained by CD. […]

[4] = blood-brain barrier uptake / penetration; details: mice
mu opioid receptor = assay: opioid receptor assay, format not described (Table 1, µ IC50)
delta opioid receptor = assay: opioid receptor assay, format not described (Table 1, δ IC50)
[5] = solvent Bicelle A (anionic bicelles)

Sequence of μ opioid receptor (P35372 whole entry): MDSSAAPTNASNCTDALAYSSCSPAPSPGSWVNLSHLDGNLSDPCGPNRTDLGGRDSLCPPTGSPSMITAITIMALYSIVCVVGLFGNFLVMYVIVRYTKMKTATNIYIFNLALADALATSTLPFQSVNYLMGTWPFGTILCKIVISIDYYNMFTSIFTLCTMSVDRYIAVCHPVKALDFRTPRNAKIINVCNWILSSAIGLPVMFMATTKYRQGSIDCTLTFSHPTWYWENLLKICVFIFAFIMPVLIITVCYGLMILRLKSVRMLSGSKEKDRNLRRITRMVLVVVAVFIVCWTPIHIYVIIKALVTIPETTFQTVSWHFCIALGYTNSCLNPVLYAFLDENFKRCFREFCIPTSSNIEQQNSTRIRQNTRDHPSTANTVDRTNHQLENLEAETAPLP
Sequence of mu opioid receptor (P35372 whole entry): as above
Sequence of δ opioid receptor (P41143 whole entry): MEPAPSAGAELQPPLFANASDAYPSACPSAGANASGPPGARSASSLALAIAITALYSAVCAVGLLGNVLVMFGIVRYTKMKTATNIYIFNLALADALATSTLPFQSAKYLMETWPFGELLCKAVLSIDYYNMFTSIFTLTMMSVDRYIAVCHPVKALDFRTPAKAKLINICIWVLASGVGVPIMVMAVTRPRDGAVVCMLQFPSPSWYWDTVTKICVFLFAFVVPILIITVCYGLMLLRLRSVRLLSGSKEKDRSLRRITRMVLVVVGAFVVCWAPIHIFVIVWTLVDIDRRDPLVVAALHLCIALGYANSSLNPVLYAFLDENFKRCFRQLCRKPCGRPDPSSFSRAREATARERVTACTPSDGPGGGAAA

In the case of `CC(C)C[C@H](NC(=O)[C@H](Cc1ccccc1)NC(=O)CNC(=O)[C@H](NC(=O)[C@@H](N)Cc1ccc(O)cc1)[C@H](C)O)C(=O)NCC(=O)N[C@@H](CCCCN)C(=O)N[C@@H](CO[C@@H]1O[C@H](CO)[C@@H](O)[C@H](O)[C@H]1O)C(=O)N[C@@H](Cc1ccccc1)C(=O)N[C@@H](C)C(=O)N[C@@H](CCC(=O)O)C(=O)N[C@@H](CC(C)C)C(=O)N[C@@H](Cc1c[nH]c2ccccc12)C(=O)N[C@@H](CO[C@@H]1O[C@H](CO)[C@@H](O)[C@H](O)[C@H]1O)C(=O)N[C@@H](CC(N)=O)C(=O)N[C@@H](Cc1ccccc1)C(=O)N[C@@H](CC(C)C)C(=O)N[C@@H](CO[C@@H]1O[C@H](CO)[C@@H](O)[C@H](O)[C@H]1O)C(N)=O` (relative stereo) [Glycopeptide 7, YtGFLGKS*FAELWS*NFLS*], the IC50 (μ opioid receptor) is reported as 38.2 nM, the “% α-helicity” value [1] is reported as 15% and the IC50 (δ opioid receptor) is reported as 25.6 nM. The A50 i.c.v. [2] was 0.096 nmol.

In the case of `CC(C)C[C@H](NC(=O)CNC(=O)[C@H](CC(C)C)NC(=O)[C@H](Cc1ccccc1)NC(=O)CNC(=O)[C@H](NC(=O)[C@@H](N)Cc1ccc(O)cc1)[C@H](C)O)C(=O)N[C@@H](CC(C)C)C(=O)N[C@@H](CCCCN)C(=O)N[C@@H](CO[C@@H]1O[C@H](CO)[C@@H](O)[C@H](O)[C@H]1O)C(=O)N[C@@H](Cc1ccccc1)C(=O)N[C@@H](C)C(=O)N[C@@H](CCC(=O)O)C(=O)N[C@@H](CO[C@@H]1O[C@H](CO)[C@@H](O)[C@H](O)[C@H]1O)C(=O)N[C@@H](Cc1c[nH]c2ccccc12)C(=O)N[C@@H](CO[C@@H]1O[C@H](CO)[C@@H](O)[C@H](O)[C@H]1O)C(=O)N[C@@H](CC(N)=O)C(=O)N[C@@H](Cc1ccccc1)C(N)=O` (relative stereo) [Glycopeptide 6, YtGFLGLLKS*FAES*WS*NF], the IC50 (μ opioid receptor) is reported as 154 nM, the “% α-helicity” value [1] is reported as 37% and the IC50 (δ opioid receptor) is reported as 11.9 nM. For the same molecule, the A50 i.c.v. [2] was 0.028 nmol.

In the case of YtGFLGLLKS*FWES*WS*NF [Glycopeptide 8], the “% α-helicity” value [1] is reported as 39% and the “in vivo potency and duration of action (in words)” value ([2]; within 2nd generation series) is reported as “lowest potency in vivo, but longest duration of action”.

For YtGFLGALKS*FAES*LS*NA [Glycopeptide 5], the “% α-helicity” value [1] was 58%.

In the case of `CC(C)C[C@H](NC(=O)[C@H](CO[C@@H]1O[C@H](CO)[C@@H](O)[C@H](O)[C@H]1O)NC(=O)[C@H](CCCCN)NC(=O)[C@H](CC(C)C)NC(=O)[C@H](C)NC(=O)[C@H](CCCCN)NC(=O)[C@H](CCC(=O)O)NC(=O)C(C)(C)NC(=O)[C@H](CC(C)C)NC(=O)[C@H](CC(N)=O)NC(=O)CCNC(=O)[C@H](CC(C)C)NC(=O)[C@H](Cc1ccccc1)NC(=O)CNC(=O)[C@H](NC(=O)[C@@H](N)Cc1ccc(O)cc1)[C@H](C)O)C(N)=O` (relative stereo) [Glycopeptide 10, YtGFLβANLBEKALKS*L], the “% α-helicity by NMR” value ([3]; solvent H2O) is reported as 17%, the “% α-helicity by NMR” value ([3]; solvent SDS micelles) is reported as 55% and the “% α-helicity by NMR” value ([3]; solvent TFE) is reported as 32%. The IC50 (μ opioid receptor) was 153 nM, the BBB uptake [4] was 0.183 microliters per min per gram of cortex and the “% α-helicity by CD” value [1, 5] was 27%. The “% α-helicity by CD” value ([1]; solvent H2O) was greater than 1%, the “% α-helicity by CD” value ([1]; solvent SDS micelles) was 29% and the “% α-helicity by CD” value ([1]; solvent TFE) was 22%. For the same molecule, the IC50 (δ opioid receptor) was 109 nM and the A50 i.c.v. [2] was 0.030 nmol.

For YtGFLPNLBEKALKS**L [Glycopeptide 12], the “% α-helicity by NMR” value ([3]; solvent H2O) was 22%, the “% α-helicity by NMR” value ([3]; solvent SDS micelles) was 29% and the “% α-helicity by NMR” value ([3]; solvent TFE) was 34%. The “% α-helicity by CD” value [1, 5] was 33%, the “% α-helicity by CD” value ([1]; solvent H2O) was greater than 1% and the “% α-helicity by CD” value ([1]; solvent SDS micelles) was 33%. The “% α-helicity by CD” value ([1]; solvent TFE) was 23%.

B1: Glycopeptide 9 (YtGFLPNLBEKALKS*L) (peptide)
peptide: Y[dT]GFLPNL[Aib]EKALKS(βGlc)L-NH2
Work on B1 yielded an IC50 (mu opioid receptor) of 90.8 nM and an IC50 (delta opioid receptor) of 6.15 nM.

B2: Glycopeptide 2 (YtGFLGELAS*KWFNALES*) (peptide)
peptide: Y[dT]GFLGELAS(βGlc)KWFNALES(βGlc)-NH2
Work on B2 yielded an IC50 (mu opioid receptor) of 144 nM and an IC50 (delta opioid receptor) of 9.5 nM.

B3: Glycopeptide 10 (YtGFLβANLBEKALKS*L) (peptide)
peptide: Y[dT]GFL[βAla]NL[Aib]EKALKS(βGlc)L-NH2
Molecule B3 has an IC50 (mu opioid receptor) of 153 nM and an IC50 (delta opioid receptor) of 109 nM.

B4: Glycopeptide 11 (YtGFLGGNLBEKALKS*L) (peptide)
peptide: Y[dT]GFLGGNL[Aib]EKALKS(βGlc)L-NH2
Work on B4 yielded an IC50 (mu opioid receptor) of 53 nM and an IC50 (delta opioid receptor) of 32.5 nM.

B5: Glycopeptide 6 (YtGFLGLLKS*FAES*WS*NF) (peptide)
peptide: Y[dT]GFLGLLKS(βGlc)FAES(βGlc)WS(βGlc)NF-NH2
With B5 the IC50 (mu opioid receptor) was 154 nM and the IC50 (delta opioid receptor) was 11.9 nM.

B6: Glycopeptide 7 (YtGFLGKS*FAELWS*NFLS*) (peptide)
peptide: Y[dT]GFLGKS(βGlc)FAELWS(βGlc)NFLS(βGlc)-NH2
Work on B6 yielded an IC50 (mu opioid receptor) of 38.2 nM and an IC50 (delta opioid receptor) of 25.6 nM.
